According to patent US20180021360A1, “Combination Therapy Regimen For Treatment Of Selected HCV Genotypes” (JANSSEN PHARMACEUTICALS, INC., priority 2016, published 2018):

Key:
CYP = CYP inhibition potential; conditions: any CYP
MRP2 = MRP2 (Homo sapiens, UniProt Q92887); conditions: cited from earlier work
[1] = Phase-1 drug-drug interaction study of Odalasvir, Simeprevir and Compound (III) in healthy volunteers; format: in vivo, human
Source text: The following daily doses were employed:

P-gp = P-gp (Homo sapiens, UniProt P08183); conditions: cited from earlier work
Chain of P-gp (P08183 whole entry): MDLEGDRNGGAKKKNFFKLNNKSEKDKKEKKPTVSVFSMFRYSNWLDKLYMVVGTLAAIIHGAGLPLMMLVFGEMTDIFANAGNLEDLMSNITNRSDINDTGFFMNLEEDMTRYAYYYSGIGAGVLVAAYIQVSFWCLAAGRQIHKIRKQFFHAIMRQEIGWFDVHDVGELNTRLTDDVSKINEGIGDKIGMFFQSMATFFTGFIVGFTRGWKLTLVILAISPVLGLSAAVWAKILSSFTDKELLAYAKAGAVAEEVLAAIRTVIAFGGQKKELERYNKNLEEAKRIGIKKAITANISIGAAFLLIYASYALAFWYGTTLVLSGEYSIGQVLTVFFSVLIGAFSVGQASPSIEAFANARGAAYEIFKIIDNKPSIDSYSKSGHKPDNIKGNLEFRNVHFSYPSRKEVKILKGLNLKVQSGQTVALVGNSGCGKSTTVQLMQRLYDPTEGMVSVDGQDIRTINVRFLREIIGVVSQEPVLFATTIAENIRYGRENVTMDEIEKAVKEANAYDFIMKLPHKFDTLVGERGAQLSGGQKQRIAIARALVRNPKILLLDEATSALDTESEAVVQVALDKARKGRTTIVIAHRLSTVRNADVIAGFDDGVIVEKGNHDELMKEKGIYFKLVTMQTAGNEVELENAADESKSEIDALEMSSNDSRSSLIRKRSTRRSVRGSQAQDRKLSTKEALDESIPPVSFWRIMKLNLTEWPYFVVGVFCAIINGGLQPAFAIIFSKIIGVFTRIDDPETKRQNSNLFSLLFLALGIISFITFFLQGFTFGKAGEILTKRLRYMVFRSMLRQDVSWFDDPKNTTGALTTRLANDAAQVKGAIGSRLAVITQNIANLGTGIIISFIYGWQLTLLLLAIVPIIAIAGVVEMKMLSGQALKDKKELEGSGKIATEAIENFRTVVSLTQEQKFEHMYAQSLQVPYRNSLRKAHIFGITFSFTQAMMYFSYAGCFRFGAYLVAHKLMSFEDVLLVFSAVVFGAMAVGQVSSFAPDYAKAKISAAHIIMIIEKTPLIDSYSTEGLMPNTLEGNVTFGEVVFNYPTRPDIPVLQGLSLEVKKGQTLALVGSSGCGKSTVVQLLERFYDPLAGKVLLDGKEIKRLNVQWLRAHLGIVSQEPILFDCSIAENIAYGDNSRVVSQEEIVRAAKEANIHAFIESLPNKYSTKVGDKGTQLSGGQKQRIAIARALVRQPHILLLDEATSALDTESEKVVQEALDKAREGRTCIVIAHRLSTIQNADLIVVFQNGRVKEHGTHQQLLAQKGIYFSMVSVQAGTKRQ

[2] = Phase 2a open-label combination study, pharmacokinetics; format: in vivo, human
Description: A randomized, Phase 2a, open-label study was carried out to evaluate the safety, pharmacokinetics and efficacy of the combination of Compound (III), Odalasvir and Simeprevir in Genotype 1 treatment-naïve subjects with chronic hepatitis C. Other treatment-naïve subjects included Genotype 2, 3, 4, 5 and 6.
The aim of the study was to determine the efficacy, pharmacokinetics (PK), and safety of Compound (II)+Odalasvir±SMV in HCV-infected subjects.
This was an open-label study evaluating various dosing regimens of Compound (III)+Odalasvir±SMV for 6-8 weeks in treatment-nave HCV-infected subjects with varying clinical characteristics (e.g., GT 1 or 3, presence/absence of compensated Child Pugh A cirrhosis). Efficacy, PK and safety evaluations were conducted during and through 24 weeks post dosing. Up to 15 cohorts were enrolled; data was generated from cohorts that have completed dosing.

MRP3 = MRP3 (Homo sapiens, UniProt O15438); conditions: cited from earlier work
Chain of MRP3 (O15438 whole entry): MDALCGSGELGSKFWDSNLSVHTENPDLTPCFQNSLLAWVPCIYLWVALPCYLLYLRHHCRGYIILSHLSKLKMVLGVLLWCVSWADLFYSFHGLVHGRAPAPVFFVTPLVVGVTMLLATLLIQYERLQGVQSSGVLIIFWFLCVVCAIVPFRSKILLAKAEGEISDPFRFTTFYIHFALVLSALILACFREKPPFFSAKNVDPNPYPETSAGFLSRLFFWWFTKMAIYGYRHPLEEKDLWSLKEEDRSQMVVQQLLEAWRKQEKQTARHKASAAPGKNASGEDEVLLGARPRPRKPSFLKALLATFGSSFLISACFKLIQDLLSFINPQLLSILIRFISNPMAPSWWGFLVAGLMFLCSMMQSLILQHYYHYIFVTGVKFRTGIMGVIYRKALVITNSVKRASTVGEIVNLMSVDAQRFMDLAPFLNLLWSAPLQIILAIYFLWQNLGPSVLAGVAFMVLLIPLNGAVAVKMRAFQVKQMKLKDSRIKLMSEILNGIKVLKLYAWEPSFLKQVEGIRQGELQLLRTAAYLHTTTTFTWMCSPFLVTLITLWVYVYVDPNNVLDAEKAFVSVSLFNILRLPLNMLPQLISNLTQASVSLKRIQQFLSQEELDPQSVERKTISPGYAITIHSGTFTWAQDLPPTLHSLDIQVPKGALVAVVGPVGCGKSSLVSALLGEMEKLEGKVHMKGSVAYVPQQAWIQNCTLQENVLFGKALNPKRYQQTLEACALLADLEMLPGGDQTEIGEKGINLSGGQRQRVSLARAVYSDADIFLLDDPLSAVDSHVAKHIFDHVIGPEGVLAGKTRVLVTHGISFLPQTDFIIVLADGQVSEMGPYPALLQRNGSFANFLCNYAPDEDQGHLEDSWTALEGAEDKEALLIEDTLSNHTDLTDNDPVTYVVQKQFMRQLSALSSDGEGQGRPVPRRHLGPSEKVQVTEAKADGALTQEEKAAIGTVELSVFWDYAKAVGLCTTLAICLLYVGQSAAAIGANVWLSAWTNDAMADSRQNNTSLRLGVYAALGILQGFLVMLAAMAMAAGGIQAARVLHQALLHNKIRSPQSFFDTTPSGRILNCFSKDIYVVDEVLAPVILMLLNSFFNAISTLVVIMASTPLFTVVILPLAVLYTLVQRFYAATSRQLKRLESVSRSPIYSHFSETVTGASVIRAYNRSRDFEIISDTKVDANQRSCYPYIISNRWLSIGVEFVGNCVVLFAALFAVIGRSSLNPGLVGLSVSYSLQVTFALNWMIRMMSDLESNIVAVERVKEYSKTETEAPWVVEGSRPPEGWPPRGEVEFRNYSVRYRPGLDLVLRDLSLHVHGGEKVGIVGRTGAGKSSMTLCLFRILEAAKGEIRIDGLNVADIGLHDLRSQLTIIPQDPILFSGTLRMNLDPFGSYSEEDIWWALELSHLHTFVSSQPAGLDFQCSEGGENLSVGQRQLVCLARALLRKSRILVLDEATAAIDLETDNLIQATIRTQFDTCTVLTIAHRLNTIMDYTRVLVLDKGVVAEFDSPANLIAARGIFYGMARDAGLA

OATP1B3 = biological target: T1, OATP1B3 (Homo sapiens, UniProt Q9NPD5); conditions: cited from earlier work
T1 sequence (Q9NPD5 1-702): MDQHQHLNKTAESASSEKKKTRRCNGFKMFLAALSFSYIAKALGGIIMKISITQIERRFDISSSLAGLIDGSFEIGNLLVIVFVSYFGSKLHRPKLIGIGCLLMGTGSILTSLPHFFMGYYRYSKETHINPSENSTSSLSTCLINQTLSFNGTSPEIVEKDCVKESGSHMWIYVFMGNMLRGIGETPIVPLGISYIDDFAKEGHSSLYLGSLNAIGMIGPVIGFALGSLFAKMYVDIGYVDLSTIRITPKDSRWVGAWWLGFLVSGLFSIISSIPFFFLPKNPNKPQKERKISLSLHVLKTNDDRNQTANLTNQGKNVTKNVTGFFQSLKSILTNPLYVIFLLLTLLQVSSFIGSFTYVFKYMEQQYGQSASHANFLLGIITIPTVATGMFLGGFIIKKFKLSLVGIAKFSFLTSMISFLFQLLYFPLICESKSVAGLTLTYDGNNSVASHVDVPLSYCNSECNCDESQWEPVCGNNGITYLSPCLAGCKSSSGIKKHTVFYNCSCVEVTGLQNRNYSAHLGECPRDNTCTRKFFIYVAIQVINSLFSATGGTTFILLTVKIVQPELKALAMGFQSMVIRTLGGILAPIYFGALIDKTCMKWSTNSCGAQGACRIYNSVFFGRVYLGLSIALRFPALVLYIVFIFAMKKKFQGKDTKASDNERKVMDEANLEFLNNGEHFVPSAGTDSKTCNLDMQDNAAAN

BCRP = biological target: T2, BCRP (Homo sapiens, UniProt Q9UNQ0); conditions: cited from earlier work
T2 sequence (Q9UNQ0 1-655): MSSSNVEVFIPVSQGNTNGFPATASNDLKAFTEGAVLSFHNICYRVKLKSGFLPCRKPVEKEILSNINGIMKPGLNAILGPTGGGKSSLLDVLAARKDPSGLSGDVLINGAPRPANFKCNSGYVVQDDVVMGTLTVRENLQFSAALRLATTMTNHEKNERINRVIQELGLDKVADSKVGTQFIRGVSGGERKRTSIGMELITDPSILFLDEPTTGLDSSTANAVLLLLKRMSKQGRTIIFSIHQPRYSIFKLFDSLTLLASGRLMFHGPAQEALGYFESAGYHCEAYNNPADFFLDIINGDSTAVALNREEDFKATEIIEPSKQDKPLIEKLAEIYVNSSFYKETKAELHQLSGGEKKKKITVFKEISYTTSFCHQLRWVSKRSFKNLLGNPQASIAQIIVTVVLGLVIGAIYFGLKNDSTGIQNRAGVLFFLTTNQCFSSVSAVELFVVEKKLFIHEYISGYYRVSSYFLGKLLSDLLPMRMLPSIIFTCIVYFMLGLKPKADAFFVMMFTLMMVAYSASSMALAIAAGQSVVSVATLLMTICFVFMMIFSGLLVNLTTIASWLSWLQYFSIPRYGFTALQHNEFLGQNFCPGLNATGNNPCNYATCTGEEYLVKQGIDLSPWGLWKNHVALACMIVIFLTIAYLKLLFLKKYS

OATP1B1 = biological target: T3, OATP1B1 (Homo sapiens, UniProt Q9Y6L6); conditions: cited from earlier work
T3 sequence (Q9Y6L6 1-691): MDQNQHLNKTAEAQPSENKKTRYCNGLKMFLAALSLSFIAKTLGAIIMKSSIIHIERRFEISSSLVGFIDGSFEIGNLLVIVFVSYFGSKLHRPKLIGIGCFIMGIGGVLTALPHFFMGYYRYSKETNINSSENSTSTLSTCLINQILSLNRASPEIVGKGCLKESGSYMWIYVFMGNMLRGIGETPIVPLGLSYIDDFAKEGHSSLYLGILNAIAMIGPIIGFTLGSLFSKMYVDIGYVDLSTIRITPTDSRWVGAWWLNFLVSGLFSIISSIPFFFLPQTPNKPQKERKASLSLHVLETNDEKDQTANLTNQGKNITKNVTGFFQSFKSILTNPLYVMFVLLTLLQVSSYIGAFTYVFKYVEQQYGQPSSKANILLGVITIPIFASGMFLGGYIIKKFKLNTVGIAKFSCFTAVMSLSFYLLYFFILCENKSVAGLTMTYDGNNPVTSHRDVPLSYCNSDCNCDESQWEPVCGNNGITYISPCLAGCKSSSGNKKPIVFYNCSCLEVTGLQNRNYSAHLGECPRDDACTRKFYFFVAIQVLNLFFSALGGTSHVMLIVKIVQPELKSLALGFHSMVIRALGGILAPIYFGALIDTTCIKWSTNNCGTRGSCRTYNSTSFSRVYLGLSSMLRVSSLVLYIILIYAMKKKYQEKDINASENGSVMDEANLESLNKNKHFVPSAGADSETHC

HCV genotype 3 = test: activity against genotype 3 in vitro; design: species or system hepatitis C virus

Chain of MRP2 (Q92887 whole entry): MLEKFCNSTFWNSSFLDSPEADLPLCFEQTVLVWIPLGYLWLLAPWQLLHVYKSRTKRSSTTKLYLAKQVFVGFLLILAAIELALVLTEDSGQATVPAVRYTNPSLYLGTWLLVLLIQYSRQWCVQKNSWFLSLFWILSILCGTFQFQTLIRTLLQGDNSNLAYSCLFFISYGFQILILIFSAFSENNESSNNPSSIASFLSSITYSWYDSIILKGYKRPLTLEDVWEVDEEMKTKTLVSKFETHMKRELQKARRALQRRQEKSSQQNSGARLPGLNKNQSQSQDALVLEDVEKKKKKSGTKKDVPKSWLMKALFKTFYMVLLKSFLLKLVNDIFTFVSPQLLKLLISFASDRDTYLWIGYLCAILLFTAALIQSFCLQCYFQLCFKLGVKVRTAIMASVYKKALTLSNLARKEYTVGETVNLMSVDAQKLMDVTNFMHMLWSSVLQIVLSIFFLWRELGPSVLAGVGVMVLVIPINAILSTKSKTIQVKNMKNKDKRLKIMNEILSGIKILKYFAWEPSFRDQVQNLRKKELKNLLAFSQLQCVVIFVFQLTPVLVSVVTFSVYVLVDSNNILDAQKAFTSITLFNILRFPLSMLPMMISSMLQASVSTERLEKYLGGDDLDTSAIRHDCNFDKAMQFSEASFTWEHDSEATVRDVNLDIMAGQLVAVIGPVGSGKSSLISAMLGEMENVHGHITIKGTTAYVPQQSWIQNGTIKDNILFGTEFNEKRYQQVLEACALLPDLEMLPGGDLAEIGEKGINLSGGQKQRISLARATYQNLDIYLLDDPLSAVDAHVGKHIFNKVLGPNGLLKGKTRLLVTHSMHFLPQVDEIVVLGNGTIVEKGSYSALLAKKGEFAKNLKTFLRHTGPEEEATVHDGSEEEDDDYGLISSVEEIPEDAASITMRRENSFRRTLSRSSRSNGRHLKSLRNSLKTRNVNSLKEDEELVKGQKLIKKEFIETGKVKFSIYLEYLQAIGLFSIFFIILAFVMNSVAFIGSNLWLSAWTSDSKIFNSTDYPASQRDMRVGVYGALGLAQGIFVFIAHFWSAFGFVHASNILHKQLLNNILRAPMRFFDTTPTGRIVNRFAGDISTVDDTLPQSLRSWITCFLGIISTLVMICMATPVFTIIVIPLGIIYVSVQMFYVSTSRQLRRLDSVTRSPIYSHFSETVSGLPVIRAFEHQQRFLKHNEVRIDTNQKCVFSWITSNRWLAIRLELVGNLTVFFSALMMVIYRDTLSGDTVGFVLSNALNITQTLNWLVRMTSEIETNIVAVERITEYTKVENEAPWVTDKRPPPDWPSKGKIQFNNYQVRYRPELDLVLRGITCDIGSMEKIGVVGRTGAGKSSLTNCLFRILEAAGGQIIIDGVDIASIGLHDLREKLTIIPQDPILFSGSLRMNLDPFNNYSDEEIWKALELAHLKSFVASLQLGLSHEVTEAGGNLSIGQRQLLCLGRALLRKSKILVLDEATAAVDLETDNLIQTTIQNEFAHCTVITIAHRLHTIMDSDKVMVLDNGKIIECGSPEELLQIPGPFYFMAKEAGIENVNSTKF

## COC(=O)N[C@H](C(=O)N1[C@H](c2nc3cc(-c4cc5ccc4CCc4ccc(c(-c6ccc7[nH]c([C@@H]8C[C@@H]9CCCC[C@@H]9N8C(=O)[C@@H](NC(=O)OC)C(C)C)nc7c6)c4)CC5)ccc3[nH]2)C[C@@H]2CCCC[C@@H]21)C(C)C [Odalasvir, methyl [(2,)-1-[(2S,3aS,7aS)-2-[6-[11-[2-[(2S,3aS,7aS)-1-[(2S)-2-[(methoxycarbonyl)amino]-3-methylbutanoyl]octahydro-1H-indol-2-yl]-1H-benzimidazol-6-yl]tricyclo[8.2.2.2^4,7]hexadeca-1(12),4,6,10,13,15-hexaen-5-yl]-1H-benzimidazol-2-yl]octahydro-1H-indol-1-yl]-3-methyl-1-oxobutan-2-yl]carbamate]
CYP
  CYP inhibition potential: does not inhibit
MRP2
  in vitro inhibition of MRP2: no inhibition
[1]; DDI study results
  effect of Compound (III) on SMV or ODV: no apparent effect
  increase of exposure caused by SMV: 1.6 ×
  increase of exposure, effect of the three Compounds: 1.5 ×
[1]; human in vivo study (Example 1)
  increase of exposure on co-administration of Compounds I, II and III: 1.5 times
[1]; human, in vivo
  effect of Compound (III) on bioavailability of SMV or ODV: does not alter
  increase of exposure of ODV by SMV: 1.6 fold
P-gp
  in vitro inhibition of P-gp: moderate inhibition
[2]; Compound (III) 400 mg, ODV 50 mg QD, SMV 100 mg QD
  observed exposures in Cohort 1 / group (i): higher than anticipated
[2]; in vivo
  decrease of ODV exposure on reducing ODV dosing from QD to QOD: proportionally
MRP3
  in vitro inhibition of MRP3: no inhibition
OATP1B3
  in vitro inhibition of OATP1B3: no inhibition
BCRP
  in vitro inhibition of BCRP: no inhibition
OATP1B1
  in vitro inhibition of OATP1B1: no inhibition
HCV genotype 3
  activity against genotype 3 in vitro: effective
